Laboratory results as given in patent publication US7989630B2, “Radiotracers for imaging P-glycoprotein function” (National Institutes of Health Represented by the Secretary …, priority 2008, dated 2011).
Structures can show the parent of a compound that is named as a salt.

Legend:
[1] = Plasma analysis of [^11C]loperamide in nonhuman primates (arterial plasma, radio-HPLC); details: for time at which parent radiotracer was 50% of total plasma activity: monkey arterial plasma
Text: (§1) For tariquidar only a blockade scan was acquired and compared to the baseline scans of three other animals.

[2] = system: P-gp; details: P-gp knockout mice, 30 min after injection of [^11C]loperamide
Method: At 30 min after radiotracer injection, anticoagulated blood was removed by cardiac puncture, and the brain was harvested. Plasma was separated from whole blood by centrifugation at 1,800 g for 1 min. […] The homogenates were measured in the y-counter to calculate the % recovery of radioactivity into the acetonitrile extracts. The homogenates were then centrifuged at 10,000×g for 1 min. […] The eluate was monitored with an in-line flow-through Na(Tl) scintillation detector (Bioscan, Washington D.C., USA). Plasma parent and radiometabolite concentrations were calculated as the product of the radio-HPLC fraction of interest and the total plasma radioactivity concentration (dpm/mL).

[3] = system: P-gp; assay: PET imaging of [^11C]loperamide in monkey brain with P-gp inhibitors; details: for increase of brain activity after [^11C]loperamide: monkey; for increase of peak radioactivity in brain after [^11C]loperamide: inhibitor 8.0 mg/kg i.v. 30 min before radiotracer, monkey (FIG. 3)
Method: as §1
PET images were co-registered to a magnetic resonance image template of a monkey brain. Tomographic images were analyzed with PMOD 2.7 (pixel-wise modeling computer software; PMOD Group, Adliswil, Switzerland). Regions of interest were drawn on coronal slices. Decay-corrected radioactivity was expressed as % standardized uptake value (% SUV), which normalizes for injected activity and body weight. % SUV=(% injected activity per cm3 brain)×(g body weight).

[4] = Arterial plasma parent input function and plasma free fraction, [^11C]loperamide with tariquidar; format: in vivo; details: monkey
Method: Arterial plasma parent input function and plasma free fraction (fl) were determined in monkey.

[5] = system: P-gp; assay: Monkey brain PET with [^11C]loperamide, baseline and tariquidar (additional experiments)
[6] = system: P-gp
Method: Serial dynamic images were acquired for 100 min, with frames of 6×20 s, 5×1 min, 4×2 min, 3×5 min, 3×10 min, and 2×20 min. […] The small mouse brain causes little scatter and attenuation of the gamma emissions from carbon-11, and, thus, no correction for scatter or attenuation was performed.

[7] = Plasma free fraction (fP) by ultracentrifugation; format: in vitro ADME; details: fP of [^11C]loperamide, monkey
[8] = system: P-gp; details: iv, 8 mg/kg
[9] = system: P-gp; details: Ekins et al. 2002 (DCPQ); Martin et al. 1999 (tariquidar); cited from earlier work
[10] = system: P-gp; assay: PET imaging of [^11C]dLop in monkey brain, baseline and P-gp blocked with DCPQ; details: for increase of regional radioactivity concentration relative to baseline: DCPQ 16 mg/kg i.v. before [^11C]dLop, averaged 25-50 min
Method: Scatter and attenuation correction were applied. Images were analyzed with PMOD. Regions of interest were drawn on coronal slices for eight brain regions (frontal cortex, anterior cingulate, temporal cortex, parietal cortex, hippocampus, occipital cortex, putamen and cerebellum). Activity was decay-corrected to the time of injection and expressed as % SUV. […]
Time-radioactivity data were collected for the same eight brain regions as previously described.

[11] = system: P-gp; details: DCPQ 16 mg/kg i.v., monkeys
Method: The brains of three P-gp KO and three WT mice were scanned for 90 min after administration of [^11C]dLop (˜580 μCi, i.v.). Mice injected with [^11C]dLop (600 μCi, i.v.) were also sacrificed at 30 min, and acetonitrile extracts of blood and brain analyzed with reverse phase HPLC.

[12] = biological target: κ opiate receptor (Homo sapiens, UniProt P41145); assay: biochemical; details: agonist radiotracer ^3H-U69,593; mean ± SD of four competitive binding experiments
κ opiate receptor, sequence (P41145 whole entry): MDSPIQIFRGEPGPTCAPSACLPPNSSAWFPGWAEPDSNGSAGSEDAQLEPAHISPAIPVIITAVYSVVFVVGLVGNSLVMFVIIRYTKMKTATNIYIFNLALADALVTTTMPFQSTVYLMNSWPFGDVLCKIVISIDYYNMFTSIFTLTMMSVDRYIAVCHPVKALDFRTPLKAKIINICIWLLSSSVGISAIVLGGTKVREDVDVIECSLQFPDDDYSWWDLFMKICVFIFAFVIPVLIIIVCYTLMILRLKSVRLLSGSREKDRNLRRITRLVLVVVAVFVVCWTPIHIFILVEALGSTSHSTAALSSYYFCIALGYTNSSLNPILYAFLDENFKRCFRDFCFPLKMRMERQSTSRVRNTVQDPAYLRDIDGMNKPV
Text: (§2) Detailed binding protocols are available on the web site for The National Institute of Mental Health Psychoactive Drug Screening Program.

[13] = biological target: P-gp (Mus musculus, UniProt P21447); details: 30 min after [^11C]loperamide i.v.
P-gp (Mus musculus, UniProt P21447), sequence (P21447 whole entry): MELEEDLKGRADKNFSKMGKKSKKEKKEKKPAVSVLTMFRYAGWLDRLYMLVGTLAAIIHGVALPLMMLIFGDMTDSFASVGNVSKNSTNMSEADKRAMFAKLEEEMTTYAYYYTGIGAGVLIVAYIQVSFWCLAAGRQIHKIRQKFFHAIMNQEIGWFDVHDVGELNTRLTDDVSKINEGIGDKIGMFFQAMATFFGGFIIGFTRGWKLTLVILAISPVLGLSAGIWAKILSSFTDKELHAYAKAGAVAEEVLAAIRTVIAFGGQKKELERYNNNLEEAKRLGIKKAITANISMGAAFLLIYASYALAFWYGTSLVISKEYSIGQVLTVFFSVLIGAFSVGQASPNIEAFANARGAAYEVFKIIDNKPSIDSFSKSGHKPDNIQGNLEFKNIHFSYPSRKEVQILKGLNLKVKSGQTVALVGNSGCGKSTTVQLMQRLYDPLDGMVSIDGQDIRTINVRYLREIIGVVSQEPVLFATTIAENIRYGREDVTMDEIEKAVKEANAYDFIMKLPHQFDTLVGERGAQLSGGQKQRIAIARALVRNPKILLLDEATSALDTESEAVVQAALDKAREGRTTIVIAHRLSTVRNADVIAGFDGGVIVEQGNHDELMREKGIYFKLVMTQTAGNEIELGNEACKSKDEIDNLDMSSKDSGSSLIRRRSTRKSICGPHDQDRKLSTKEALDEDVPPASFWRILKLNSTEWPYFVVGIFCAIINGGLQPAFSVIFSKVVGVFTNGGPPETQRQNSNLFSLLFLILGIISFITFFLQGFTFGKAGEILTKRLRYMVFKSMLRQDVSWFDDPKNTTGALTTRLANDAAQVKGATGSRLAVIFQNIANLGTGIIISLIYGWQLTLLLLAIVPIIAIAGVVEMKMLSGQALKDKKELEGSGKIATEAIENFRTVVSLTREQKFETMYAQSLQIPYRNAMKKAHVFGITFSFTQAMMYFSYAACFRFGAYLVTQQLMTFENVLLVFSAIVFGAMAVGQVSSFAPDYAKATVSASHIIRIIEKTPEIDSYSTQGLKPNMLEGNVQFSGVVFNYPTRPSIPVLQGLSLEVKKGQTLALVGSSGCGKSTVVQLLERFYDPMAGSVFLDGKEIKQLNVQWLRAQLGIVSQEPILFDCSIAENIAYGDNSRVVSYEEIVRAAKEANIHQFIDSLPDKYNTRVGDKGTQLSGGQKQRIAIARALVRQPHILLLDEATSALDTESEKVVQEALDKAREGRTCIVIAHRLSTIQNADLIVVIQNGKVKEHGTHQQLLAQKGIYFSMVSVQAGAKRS
Text: (§3) The most lipophilic radiometabolite was identified by radio-HPLC co-elution as N-desmethylloperamide (dLop) (data not shown).

[14] = system: P-gp; details: KO mice, 30 min after [^11C]loperamide i.v.
Text: as §3

[15] = biological target: δ opiate receptor (Homo sapiens, UniProt P41143); assay: In vitro receptor binding, cloned human δ opiate receptor
δ opiate receptor, sequence (P41143 whole entry): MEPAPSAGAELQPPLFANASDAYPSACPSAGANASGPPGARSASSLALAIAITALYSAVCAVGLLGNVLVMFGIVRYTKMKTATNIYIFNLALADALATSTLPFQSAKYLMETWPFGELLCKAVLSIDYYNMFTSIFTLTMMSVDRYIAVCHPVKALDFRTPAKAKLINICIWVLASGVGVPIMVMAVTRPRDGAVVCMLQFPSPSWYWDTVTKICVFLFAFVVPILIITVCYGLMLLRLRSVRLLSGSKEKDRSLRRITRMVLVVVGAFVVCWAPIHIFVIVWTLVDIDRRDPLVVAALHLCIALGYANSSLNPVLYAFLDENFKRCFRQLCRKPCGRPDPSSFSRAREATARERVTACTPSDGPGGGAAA
Text: as §2

[16] = biological target: μ opiate receptor (Homo sapiens, UniProt P35372); format: binding
μ opiate receptor, sequence (P35372 whole entry): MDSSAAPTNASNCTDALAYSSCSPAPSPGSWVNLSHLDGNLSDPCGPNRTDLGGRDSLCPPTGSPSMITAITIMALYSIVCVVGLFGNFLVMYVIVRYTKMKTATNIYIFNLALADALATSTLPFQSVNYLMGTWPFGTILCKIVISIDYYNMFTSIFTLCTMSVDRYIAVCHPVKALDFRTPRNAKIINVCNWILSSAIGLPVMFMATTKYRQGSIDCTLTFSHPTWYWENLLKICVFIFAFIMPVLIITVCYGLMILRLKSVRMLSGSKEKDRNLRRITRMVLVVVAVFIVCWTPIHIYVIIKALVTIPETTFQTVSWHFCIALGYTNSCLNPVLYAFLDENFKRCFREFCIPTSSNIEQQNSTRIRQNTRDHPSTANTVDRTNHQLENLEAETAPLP
Text: as §2

[17] = system: P-gp; assay: P-gp function imaged with [^11C]dLop in monkeys, brain study; format: in vivo; details: naloxone 5 mg/kg or loperamide 1 mg/kg at 30 min after [^11C]dLop, P-gp blocked monkeys
Method: Displacement agents were given at 30 min after the radiotracer. A subset of monkeys also had arterial blood sampling (n=5) and [^15O]H2O PET scans (n=4) to measure the concentration of parent radiotracer in plasma and cerebral blood flow, respectively.

[18] = system: CYP3A4; details: mouse, in vivo
Method: Ex vivo studies were performed in wild-type (WT) and P-gp knockout (KO) mice. […] Whole brain and plasma sample radioactivity were measured with γ-counting and HPLC analysis.

[19] = inhibitor 8 mg/kg i.v. 30 min before radiotracer

With CN([11CH3])C(=O)C(CCN1CCC(O)(c2ccc(Cl)cc2)CC1)(c1ccccc1)c1ccccc1 [[^11C]loperamide, 4-(4-(4-chlorophenyl)-4-hydroxypiperidin-1-yl)-N,N-dimethyl-2,2-diphenylbutanamide] the “time at which parent radiotracer was 50% of total plasma activity” value ([1]; after DCPQ 8 mg/kg i.v.) was 20 min, the “time at which parent radiotracer was 50% of total plasma activity” value ([1]; baseline) was 17 min and the “time at which parent radiotracer was 50% of total plasma activity” value ([1]; baseline, listed as [^11C]Loperamide) was “about 20 min”. For the same molecule, the “share of brain radioactivity after [^11C]loperamide” value [2] was roughly 50%, the “brain uptake under baseline conditions” value ([3]; three monkeys, 120 min scan) was roughly 40 % SUV and the “time over which parent plasma composition decreased to 50%” value ([4]; baseline) was 17 min. For the same molecule, the “brain activity, baseline” value ([5]; baseline) was 40 % standard uptake value, the “maximal activity in cerebellum, knockout vs wild type mice (PET)” value ([6]; cerebellum) was 1.9 fold and the “maximal activity in forebrain, knockout vs wild type mice (PET)” value ([6]; forebrain) was 2.7 fold. For the same molecule, the “brain activity, knockout vs wild type mice (PET)” value ([6]; whole brains) was “about three-fold”.
In the case of COc1cc2c(cc1OC)CN(CCc1ccc(NC(=O)c3cc(OC)c(OC)cc3NC(=O)c3cnc4ccccc4c3)cc1)CC2 [Tariquidar], the “Plasma free fraction (fP), Δ relative to baseline” value ([7]; inhibitor 8.0 mg/kg) is listed as “negligibly affected”, the “brain activity after P-gp inhibition” value [8] is listed as 146 % standard uptake value and the “affinity to the P-gp” value [9] is listed as 5.1 nM. The “increase of brain activity after [^11C]loperamide” value (shortened to “increase of brain activity”) [3, 19] was “equipotent with DCPQ”, the “increase of peak radioactivity in brain after [^11C]loperamide” value [3] was 3.7 fold and the “increase of brain activity” value ([3]; inhibitor 8 mg/kg i.v. 30 min before radiotracer, listed as tariquidar) was roughly 3.5 fold. The “time over which parent plasma composition decreased to 50%” value ([4]; rhesus, in vivo) was 20 min and the “increase of brain activity” value ([5]; tariquidar 8 mg/kg i.v.) was “about 3.7 fold”.
With Cl.Cl.Cl.O[C@@H](COc1cccc2ncccc12)CN1CCN(C2c3ccccc3C3C(c4ccccc42)C3(Cl)Cl)CC1 (stereo partly drawn) [DCPQ, (2R)-anti-5-{3-[4-(10,11-dichloromethanodibenzosuber-5-yl)piperazin-1-yl]-2-hydroxypropoxy}quinoline trihydrochloride] the “Plasma free fraction (fP), P-gp Inhibition” value ([7]; inhibitor 1.0 mg/kg) was 5.7 ± 0.3, the “Plasma free fraction (fP), P-gp Inhibition” value ([7]; inhibitor 3.0 mg/kg) was 1.4 ± 0.5 and the “Plasma free fraction (fP), P-gp Inhibition” value ([7]; inhibitor 8.0 mg/kg) was 4.4 ± 1.4. The “increase in plasma exposure of [^11C]loperamide” value ([1]; DCPQ 8 mg/kg i.v. vs baseline, monkey) was 16%, the “affinity to the P-gp” value [9] was 5.3 nM and the “increase of brain activity” value ([3]; inhibitor 1 mg/kg i.v. 30 min before radiotracer) was “minimal effect”. The “increase of brain activity” value ([3]; inhibitor 3 mg/kg i.v. 30 min before radiotracer) was roughly 2.5 fold, the “increase of brain activity” value [3, 19] was roughly 3.5 fold and the “increase of peak radioactivity in brain after [^11C]loperamide” value [3] was 3.7 fold. The “dependence of regional brain radioactivity uptake on dose” value ([10]; DCPQ 0-16 mg/kg i.v. before [^11C]dLop, one monkey) was “increased almost linearly with dose of DCPQ”, the “ratio of maximal brain radioactivity to that in the baseline experiment” value ([10]; DCPQ 8 mg/kg i.v. before [^11C]dLop, monkey) was “about five” and the “effect on uptake of radioactivity into pituitary” value ([10]; DCPQ 8 mg/kg or 16 mg/kg i.v. before [^11C]dLop, monkey) was “unaffected”. The “increase of regional radioactivity concentration relative to baseline” value ([10]; cerebellum, monkey) was “thirteen-fold”, the “increase of regional radioactivity concentration relative to baseline” value ([10]; frontal cortex, monkey) was “seven-fold” and the “increase of brain radioactivity after [^11C]dLop” value [11] was “more than 7 fold”.
For CNC(=O)C(CCN1CCC(O)(c2ccc(Cl)cc2)CC1)(c1ccccc1)c1ccccc1 [dLop, 4-(4-(4-Chlorophenyl)-4-hydroxypiperidin-1-yl)-2,2-diphenyl-N-methyl-butanamide], the Ki [12] was 73 ± 7 nM, the Brain composition ([13]; WT mice) was 4.3% and the “concentration increase over control (KO vs WT)” value ([13]; brain) was 59 fold. For the same molecule, the Brain composition [14] was 21%, the “effect on washout of radioactivity from brain regions” value ([10]; given 30 min after [^11C]dLop to DCPQ-treated monkey (naloxone 5 mg/kg i.v.; loperamide or dLop 1 mg/kg i.v.)) was “no discernible effect” and the Ki [15] was 328 ± 22 nM. It also gave a Ki [16] of 0.56 ± 0.05 nM.
With CN(C)C(=O)C(CCN1CCC(O)(c2ccc(Cl)cc2)CC1)(c1ccccc1)c1ccccc1 [Loperamide, 4-(p-chlorophenyl)-4-hydroxy-N,N-dimethyl-α,α-diphenyl-1-piperidinebutyramide hydrochloride, reference compound] the Brain composition [14] was 63% and the “displacement of the radiotracer from brain” value [17] was “Neither naloxone nor loperamide caused any apparent displacement”.
With C=CCN1CC[C@]23c4c5ccc(O)c4O[C@H]2C(=O)CC[C@@]3(O)[C@H]1C5 [naloxone, reference compound] the “displacement of the radiotracer from brain” value [17] was “Neither naloxone nor loperamide caused any apparent displacement”.
With CC(=O)N1CCN(c2ccc(OCC3COC(Cn4ccnc4)(c4ccc(Cl)cc4Cl)O3)cc2)CC1 (stereo not shown) [ketoconazole] the “decrease of radiometabolite dLop in plasma” value [18] was roughly 70%, the “increase of [^11C]dLop concentration in plasma” value [18] was roughly 240% and the “increase of [^11C]loperamide concentration in plasma” value [18] was roughly 100%.
